Measured values: ChEMBL document CHEMBL1201862, “PubChem BioAssay data set” (2004)
Activity calls are given as the source filed them.

What was measured:
cells [1] = assay type: functional, cell-based
cells [2] = assay type: functional, cell-based; remark: listed apart in the source
[3] = target: FAD-linked sulfhydryl oxidase ALR (Homo sapiens, UniProt P55789); experiment: inhibitors of human ALR sulfhydryl oxidase, dose response, biochemical, H2O2 detection, luminescence, cherry-pick (AID 493248)
Chain of FAD-linked sulfhydryl oxidase ALR (P55789 whole entry): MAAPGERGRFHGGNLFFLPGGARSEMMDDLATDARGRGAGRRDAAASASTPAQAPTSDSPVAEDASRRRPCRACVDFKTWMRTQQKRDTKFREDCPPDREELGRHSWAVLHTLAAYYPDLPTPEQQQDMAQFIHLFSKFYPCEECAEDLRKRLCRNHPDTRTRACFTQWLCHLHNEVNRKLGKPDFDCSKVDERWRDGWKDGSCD

[4] = HEp-2 cell cytotoxicity, dose response, cytotoxicity control for RSV inhibitor project, HTS (AID 2410); assay type: functional; details: human respiratory syncytial virus
Cytochrome P450 2D6 = Cytochrome P450 2D6 (Homo sapiens, UniProt P10635);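 further: CYP2D6 member of a cytochrome P450 panel assay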
Chain of Cytochrome P450 2D6 (P10635 whole entry): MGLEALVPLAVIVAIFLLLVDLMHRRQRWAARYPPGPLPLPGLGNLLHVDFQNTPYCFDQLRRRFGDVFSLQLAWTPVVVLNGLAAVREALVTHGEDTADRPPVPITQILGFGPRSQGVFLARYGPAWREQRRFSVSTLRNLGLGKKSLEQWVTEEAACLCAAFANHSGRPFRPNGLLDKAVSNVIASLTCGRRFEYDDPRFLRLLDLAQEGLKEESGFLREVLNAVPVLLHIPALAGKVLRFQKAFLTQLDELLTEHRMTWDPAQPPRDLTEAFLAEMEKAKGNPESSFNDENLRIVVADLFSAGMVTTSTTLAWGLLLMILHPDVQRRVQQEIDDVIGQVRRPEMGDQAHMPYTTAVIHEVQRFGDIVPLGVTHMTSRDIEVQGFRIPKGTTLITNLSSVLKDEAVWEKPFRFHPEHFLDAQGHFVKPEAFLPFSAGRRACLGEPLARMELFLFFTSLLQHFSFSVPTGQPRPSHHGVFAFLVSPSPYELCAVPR

Cytochrome P450 2C9 = Cytochrome P450 2C9 (Homo sapiens, UniProt P11712)
Chain of Cytochrome P450 2C9 (P11712 whole entry): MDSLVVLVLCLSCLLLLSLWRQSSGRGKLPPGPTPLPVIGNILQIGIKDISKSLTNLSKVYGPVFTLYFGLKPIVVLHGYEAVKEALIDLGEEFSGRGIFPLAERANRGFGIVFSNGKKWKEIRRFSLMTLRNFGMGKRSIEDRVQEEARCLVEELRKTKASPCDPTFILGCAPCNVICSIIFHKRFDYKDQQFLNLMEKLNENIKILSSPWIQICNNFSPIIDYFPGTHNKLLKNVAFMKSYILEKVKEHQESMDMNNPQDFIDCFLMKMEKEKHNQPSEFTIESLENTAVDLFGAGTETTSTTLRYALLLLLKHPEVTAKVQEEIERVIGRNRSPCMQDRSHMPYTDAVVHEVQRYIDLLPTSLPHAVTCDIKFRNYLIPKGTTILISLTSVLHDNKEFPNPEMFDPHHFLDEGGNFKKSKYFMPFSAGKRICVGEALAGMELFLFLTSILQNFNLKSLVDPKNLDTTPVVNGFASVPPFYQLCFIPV

H4 = experiment: Luminescence Cell-Based Dose Response HTS to Identify Activators of 5'UTR Stem-Loop Driven Prion Protein mRNA Translation in H4 Neuroglioblastoma Cells. [Related pubchem assays: 1829 (Project Summary), 1814 (Primary HTS)]; assay type: functional; details: Homo sapiens
[5] = target: T1, Polyadenylate-binding protein 1 (Homo sapiens, UniProt P11940); experiment: PABP1 MLLE–PAM2 interaction inhibitors, dose response, miRNA deadenylation inhibitor project, biochemical, fluorescence polarization, Cy5-PAM2 peptide, secondary (AID 602260); assay type: functional; details: read-out: IC50_Mean
T1 sequence (P11940 whole entry): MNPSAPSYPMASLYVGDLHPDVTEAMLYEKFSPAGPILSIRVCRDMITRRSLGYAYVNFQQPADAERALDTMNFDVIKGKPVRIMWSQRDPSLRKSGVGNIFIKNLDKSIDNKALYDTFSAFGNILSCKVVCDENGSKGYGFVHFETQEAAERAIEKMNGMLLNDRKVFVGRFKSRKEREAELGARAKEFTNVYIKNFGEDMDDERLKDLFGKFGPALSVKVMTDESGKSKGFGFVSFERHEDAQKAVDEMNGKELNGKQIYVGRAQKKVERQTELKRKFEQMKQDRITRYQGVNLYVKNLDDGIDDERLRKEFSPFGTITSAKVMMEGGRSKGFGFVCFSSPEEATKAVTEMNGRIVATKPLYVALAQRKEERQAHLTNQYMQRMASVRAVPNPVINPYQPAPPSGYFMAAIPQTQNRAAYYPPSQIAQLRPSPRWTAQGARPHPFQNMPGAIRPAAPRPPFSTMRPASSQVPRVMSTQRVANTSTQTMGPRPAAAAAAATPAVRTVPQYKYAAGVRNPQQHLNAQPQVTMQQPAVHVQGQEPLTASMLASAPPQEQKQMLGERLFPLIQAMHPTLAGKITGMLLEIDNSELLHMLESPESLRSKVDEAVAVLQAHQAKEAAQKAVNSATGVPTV

[6] = target: T1, Polyadenylate-binding protein 1; experiment: PABP1 MLLE–PAM2 binding inhibitor potency, dose response, biochemical, fluorescence polarization, FITC-PAM2 peptide (AID 602259); assay type: functional; details: read-out: IC50_Mean
[7] = target: T2, Heat shock factor protein 1 (Mus musculus, UniProt P38532); experiment: inhibition of MG132-induced HSE-luciferase signal, confirmation, cell-based, NIH3T3, luminescence, dose retest (AID 2382); assay type: functional;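 further: NIH3T3 fibroblasts with HSF1-driven luciferase reporter stressed by proteasome inhibitor MG132; luminescence from HSF1-driven luciferase expression after 8 hours of MG132 stress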
T2 sequence (P38532 whole entry): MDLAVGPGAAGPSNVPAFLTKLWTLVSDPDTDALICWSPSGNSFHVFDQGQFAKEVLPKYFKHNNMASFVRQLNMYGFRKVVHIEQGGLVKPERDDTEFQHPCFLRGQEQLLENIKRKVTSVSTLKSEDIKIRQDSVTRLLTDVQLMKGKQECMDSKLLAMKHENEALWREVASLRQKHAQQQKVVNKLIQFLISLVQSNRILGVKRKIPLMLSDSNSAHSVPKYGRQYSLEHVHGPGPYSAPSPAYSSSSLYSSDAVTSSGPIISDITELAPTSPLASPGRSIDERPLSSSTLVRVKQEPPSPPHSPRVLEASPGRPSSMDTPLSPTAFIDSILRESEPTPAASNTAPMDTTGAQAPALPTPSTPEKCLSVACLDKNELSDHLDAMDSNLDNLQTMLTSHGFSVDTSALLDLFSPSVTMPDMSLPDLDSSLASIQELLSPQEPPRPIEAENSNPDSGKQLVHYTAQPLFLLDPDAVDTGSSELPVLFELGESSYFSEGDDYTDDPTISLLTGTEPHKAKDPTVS

cells [8] = assay type: functional

With `COc1cc2ncnc(NCc3cccs3)c2cc1OC` the EC50 (cells [1]) was > 350 µM (not active) and the EC50 (cells [2]) was > 350 µM (not active).

In the case of `O=P(CN1CCN(c2ccccc2)CC1)(N1CCCCC1)N1CCCCC1`, the AC50 [3] is reported as 0.656 µM (active).

With `CC(C)N(CC(N)=O)c1ncnc2sc(-c3ccccc3)cc12` the CC50 [4] was 25.9 µM (active).

In the case of `O=C(O)Cn1cc(C(=S)N2CCCCC2)c2ccccc21`, the AC50 [3] is reported as 0.407 µM (active).

With `Cc1ccc2c(c1)C(c1ccc([N+](=O)[O-])cc1)=NNC(c1ccc(Br)cc1)=N2` the CC50 [4] was 14.7 µM (active).

In the case of `Cc1ccc(NC(=O)CN(c2ccc3c(c2)OCO3)S(=O)(=O)c2c(C)n[nH]c2C)cc1`, the AC50 [3] is reported as > 100 µM (inactive).

For `Cc1cc(OC(=O)CCCNC(=O)OC(C)(C)C)c2c3c(c(=O)oc2c1)CCC3`, the AC50 (Cytochrome P450 2D6) was 15.8 µM (inconclusive).

With `COc1cccc(Nc2c(F)c(F)c(F)c(F)c2C(=O)O)c1` the AC50 [3] was 4.26 µM (active).

With `NCCCCCc1nnc(SCc2ccc(Cl)cc2Cl)o1` the AC50 (Cytochrome P450 2C9) was 14.1 µM (inconclusive) and the AC50 [3] was 2.63 µM (active).

For `COc1cc2sc3ccc(-c4ccc5[nH]ccc5c4)cc3c(=O)c2cc1OC`, the EC50 (H4) was > 120 µM (not active).

In the case of `CCOC(=O)Cc1cnc(S)nc1O`, the IC50 [5] is reported as > 66 µM (inactive) and the IC50 [6] is reported as > 66 µM (inactive).

In the case of `CCc1nc2sc3ccccc3c(=O)c2c(=O)n1Cc1ccc(OC)cc1`, the EC50 [7] is reported as > 195 µM (not active) and the CC50 [4] is reported as > 50 µM (active).

For `CCN1C(=O)[C@@H]2[C@@H](c3ccc(SC4CCCCC4)cc3)N3CCC[C@@]3(C(=O)OC)[C@@H]2C1=O`, the IC50 [5] was > 66 µM (inactive) and the IC50 [6] was > 66 µM (inactive).

In the case of `O=C(NCc1cccs1)C1CC(=O)N(C2CCCC2)C1` (stereo unspecified), the EC50 (cells [1]) is reported as > 350 µM (not active) and the EC50 (cells [2]) is reported as > 350 µM (not active).

With `N#Cc1nc(-c2cccc3ccccc23)oc1NCC1CCCO1` (stereo unspecified) the CC50 [4] was 21.7 µM (active).

For `O=[N+]([O-])c1ccc(CN2CCN(c3ccc(F)cc3)CC2)o1`, the IC50 (cells [8]) was < 0.1 µM (active).

With `CCc1c(C(C)S(=O)(=O)c2ccccc2)nc(O)n1CC` (stereo unspecified) the IC50 [5] was > 66 µM (inactive) and the IC50 [6] was > 66 µM (inactive).

In the case of `Fc1ccccc1OCCCCSc1ncccn1`, the AC50 (Cytochrome P450 2D6) is reported as 17.8 µM (inconclusive).

For `O=C(c1ccc(S(=O)(=O)c2cccc(Cl)c2)c([N+](=O)[O-])c1)N1CCN(Cc2ccccc2)CC1`, the CC50 [4] was 6.34 µM (active).

For `COc1ccc2oc(C(=O)OCC(=O)Nc3ccccc3OC)c(C)c2c1`, the EC50 (cells [1]) was 40.5 µM (active) and the EC50 (cells [2]) was > 350 µM (not active).

With `CN(C)c1nc(-c2cn(CCC#N)c3ccccc23)cs1` the IC50 [5] was > 66 µM (inactive) and the IC50 [6] was 56.9 µM (inactive).

With `COc1cccc(Nc2ccc(C(=O)O)cc2N)c1` the AC50 [3] was 1.17 µM (active) and the EC50 [7] was > 195 µM (not active).

In the case of `Cc1ccc2c(CC(=O)N3CCc4ccccc43)coc2c1`, the EC50 (H4) is reported as 18.5 µM (active).

With `O=C1NCCCc2c1oc1cc(Br)c(O)c(Br)c21` the AC50 [3] was 3.5 µM (active).

For `CCCn1c(N)c(C(=O)CSc2nc(C)cs2)c(=O)n(C)c1=O`, the AC50 (Cytochrome P450 2C9) was 28.2 µM (inconclusive) and the AC50 (Cytochrome P450 2D6) was 20 µM (inconclusive).
